In patent publication US20250289789A1, “REVERSIBLE LYSINE COVALENT MODIFIERS OF CDK2 AND USES THEREOF” (Terremoto Biosciences, Inc., priority 2023, published 2025) one finds IC50 data, which are given here for 28 compounds.

Common to all, as to type: cell-based
Assay [1] has as its system Phospho-Rb Ser807/811 in OVCAR3 cells. Description: OVCAR3 Phospho-Rb Ser807/811 HTRF assay. The conditions noted are these: Homo sapiens, OVCAR-3, 1 h, OVCAR3 cells, Phospho-Rb Ser807/811 HTRF, 1 hour incubation; read-out: pRb-OVCAR3 IC50. As to the method:
Cells were trypsinized and resuspended in 1 mM hydroxyurea (Sigma; H8627), 90% RPMI and 10% fetal bovine serum. […] Dose response curve normalized to DMSO control was plotted using four-parameter logistic model for IC50 calculation.
For orientation: Time-resolved FRET reads energy transfer from a long-lived donor to a nearby acceptor.

The target of assay [2] is T1, CDK4-NanoLuc fusion with CCND1 in 293T or 293 cells (Homo sapiens, UniProt P11802).
T1 construct: host or cells: 293T (ATCC CRL-3216) or 293 (ATCC CRL-1573)
Description: NanoBRET Target Engagement (TE) Intracellular Kinase Assay, CDK4/CCND1. Particulars: NanoBRET TE intracellular kinase assay, 2-hour incubation, read-out: NanoBRET-CDK4/D1 IC50. How it is done:
(§1) Inhibitory effects of compounds were measured in NanoBRET TE Intracellular Kinase Assay. […] Cells were co-transfected with 1 μg/mL of CDK-NanoLuc Fusion Vector (Promega; NV2701 for CDK1, NV2781 for CDK2, NV2811 for CDK4, NV2841 for CDK6) and 1 μg/mL of the corresponding Cyclin Expression Vector (Promega; NV2601 for CCNB1, NV2641 for CCNE1, NV2621 for CCND1, NV2631 for CCND3) using FuGENE HD Transfection Reagent (Promega; E2311). […] 20 uL/well of 3× Intracellular TE Nano-Glo Substrate/Inhibitor (Promega; N2162) were added to 384-well plates and incubated for 3 minutes at room temperature. NanoBRET signals (donor emission wavelength at 450 nm, acceptor emission wavelength at 610 nm) were measured using Envision plate reader (PerkinElmer). NanoBRET ratio was calculated by: BRET Ratio=raw signal for acceptor/raw signal for donor. Dose response curve normalized to DMSO control was plotted using four-parameter logistic model for IC50 calculation.
(In general: In BRET a luciferase serves as donor, and the signal depends on an acceptor being close.)

Assay [3] deals with T2, CDK2-NanoLuc fusion with CCNE1 in 293T or 293 cells (Homo sapiens, UniProt P24941).
T2 construct: host or cells: 293T (ATCC CRL-3216) or 293 (ATCC CRL-1573)
The experiment in a line: NanoBRET Target Engagement (TE) Intracellular Kinase Assay, CDK2/CCNE1. Particulars: NanoBRET TE intracellular kinase assay, 2-hour incubation, read-out: NanoBRET-CDK2/E1 IC50. As to the method:
as §1

T1 sequence (P11802 whole entry, the tested form may be a part): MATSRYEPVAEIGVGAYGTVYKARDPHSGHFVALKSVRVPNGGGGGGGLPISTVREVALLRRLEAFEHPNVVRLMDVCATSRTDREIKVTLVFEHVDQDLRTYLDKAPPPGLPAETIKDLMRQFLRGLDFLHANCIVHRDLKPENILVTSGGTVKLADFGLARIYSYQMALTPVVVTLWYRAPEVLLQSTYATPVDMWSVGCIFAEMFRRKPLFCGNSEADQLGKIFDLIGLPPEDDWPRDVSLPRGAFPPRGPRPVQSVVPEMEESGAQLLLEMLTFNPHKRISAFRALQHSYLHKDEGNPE
T1 sequence (P24385 whole entry partner, the tested form may be a part): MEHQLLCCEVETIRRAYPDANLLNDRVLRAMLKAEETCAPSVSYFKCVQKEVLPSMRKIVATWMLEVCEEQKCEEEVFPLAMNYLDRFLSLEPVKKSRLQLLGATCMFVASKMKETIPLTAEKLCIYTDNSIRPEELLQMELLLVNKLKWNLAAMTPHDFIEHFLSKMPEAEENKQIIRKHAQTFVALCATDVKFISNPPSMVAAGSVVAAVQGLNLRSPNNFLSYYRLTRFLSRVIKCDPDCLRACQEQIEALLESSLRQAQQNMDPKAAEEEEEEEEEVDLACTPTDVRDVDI

For `COc1cc(O)c(C=O)c(OCC(=O)Nc2cc([C@H]3CC[C@@H](OC(=O)NC4COC4)C3)[nH]n2)c1` [Compound 149], the figures for the IC50 in assay [1], in assay [2] and in assay [3] were 385 nM, over 10000 nM and 20.2 nM, respectively.
Regarding `COc1cc(O)c(C=O)c(OCC(=O)Nc2cc([C@H]3CC[C@@H](OC(=O)N[C@H]4C[C@@H](C)C4)C3)[nH]n2)c1` [Compound 150], the IC50 in assay [1] was determined as 148 nM; in assay [2], 3890 nM; in assay [3], 2.27 nM.
The corresponding values for `COc1cc(O)c(C=O)c(OCC(=O)Nc2cc([C@H]3CC[C@@H](OC(=O)N(C(C)C)C(C)C)C3)[nH]n2)c1` [Compound 151] are 36.1 nM, 2890 nM and 3.47 nM.
In the same order, the values of `COc1cc(O)c(C=O)c(OCC(=O)Nc2cc([C@H]3CC[C@@H](OC(=O)N4CC[C@H](C#N)C4)C3)[nH]n2)c1` [Compound 152] are 30 nM, 6990 nM and 7.62 nM.
For `COc1cc(O)c(C=O)c(OCC(=O)Nc2cc([C@H]3CC[C@@H](OC(=O)N4CC(C#N)C4)C3)[nH]n2)c1` [Compound 153], the IC50 was 49.7 nM in assay [1], over 10000 nM in assay [2] and 13.1 nM in assay [3].
In the same order, the values of `COc1cc(O)c(C=O)c(OCC(=O)Nc2cc([C@H]3CC[C@@H](OC(=O)N4[C@@H]5CC[C@H]4C[C@H](C#N)C5)C3)[nH]n2)c1` [Compound 154] are 27.8 nM, 2100 nM and 7.73 nM.
In the same order, the values of `COc1cc(O)c(C=O)c(OCC(=O)Nc2cc([C@H]3CC[C@@H](OC(=O)N(C)CCC#N)C3)[nH]n2)c1` [Compound 155] are 23.5 nM, 6300 nM and 7.65 nM.
The corresponding values for `COc1cc(O)c(C=O)c(OCC(=O)Nc2cc([C@H]3CC[C@@H](OC(=O)NCCCC#N)C3)[nH]n2)c1` [Compound 156] are 33.8 nM, over 10000 nM and 10.1 nM.
With `COc1cc(O)c(C=O)c(OCC(=O)Nc2cc([C@H]3CC[C@@H](OC(=O)N4C[C@@H]5CC[C@H]4CO5)C3)[nH]n2)c1` [Compound 157], the IC50 is 70 nM in assay [1], 7000 nM in assay [2] and 6.79 nM in assay [3].
The corresponding values for `COc1cc(O)c(C=O)c(OCC(=O)Nc2cc([C@H]3CC[C@@H](OC(=O)N4C[C@H]5CC[C@@H]4CO5)C3)[nH]n2)c1` [Compound 158] are 24.4 nM, 3900 nM and 5.58 nM.
The corresponding values for `COc1cc(O)c(C=O)c(OCC(=O)Nc2cc([C@H]3CC[C@@H](OC(=O)NC(C)(C)C#N)C3)[nH]n2)c1` [Compound 159] are 43.1 nM, 4840 nM and 10.6 nM.
Regarding `COc1cc(O)c(C=O)c(OCC(=O)Nc2cc([C@H]3CC[C@@H](OC(=O)NN(C)C)C3)[nH]n2)c1` [Compound 160], the values for the IC50 in assay [1], in assay [2] and in assay [3] were 80.3 nM, over 10000 nM and 7.35 nM, respectively.
In the same order, the values of `Cc1cc(O)c(C=O)c(OCC(=O)Nc2cc([C@H]3CC[C@@H](OC(=O)N4C5CCC4CC5)C3)[nH]n2)c1` [Compound 161] are 68.6 nM, 7360 nM and 2.79 nM.
With `Cc1cc(O)c(C=O)c(OCC(=O)Nc2cc([C@H]3CC[C@@H](OC(=O)N4CCC4(C)C)C3)[nH]n2)c1` [Compound 162], the results for the IC50 in assay [1], in assay [2] and in assay [3] were 37.4 nM, 3470 nM and 3.09 nM, respectively.
In the same order, the values of `COc1cc(O)c(C=O)c(OCC(=O)Nc2cc([C@H]3CC[C@@H](OC(=O)N[C@@H](C)CC#N)C3)[nH]n2)c1` [Compound 163] are 27.7 nM, 6300 nM and 10.2 nM.
The corresponding values for `COc1cc(O)c(C=O)c(OCC(=O)Nc2cc([C@H]3CC[C@@H](OC(=O)Nc4ccccc4)C3)[nH]n2)c1` [Compound 164] are 301 nM, 5880 nM and 9.6 nM.
In the same order, the values of `COc1cc(O)c(C=O)c(OCC(=O)Nc2cc([C@H]3CC[C@@H](OC(=O)Nc4ccncc4)C3)[nH]n2)c1` [Compound 165] are 383 nM, 7920 nM and 12.8 nM.
For the compound `COc1cc(O)c(C=O)c(OCC(=O)Nc2cc([C@H]3CC[C@@H](OC(=O)NCc4ccccn4)C3)[nH]n2)c1` [Compound 166], the IC50 in assay [1] was 167 nM; in assay [2] it was over 10000 nM; in assay [3], 10.3 nM.
In the same order, the values of `COc1cc(O)c(C=O)c(OCC(=O)Nc2cc([C@H]3CC[C@@H](OC(=O)N[C@@H](C)CC(F)(F)F)C3)[nH]n2)c1` [Compound 167] are 24.3 nM, 828 nM and 2.8 nM.
Regarding `CCC[C@H](C)NC(=O)O[C@@H]1CC[C@H](c2cc(NC(=O)COc3cc(OC)cc(O)c3C=O)n[nH]2)C1` [Compound 168], the IC50 in assay [1] was found to be 29.2 nM; in assay [2], 3270 nM; in assay [3], 2.45 nM.
The corresponding values for `CCN(C(=O)O[C@@H]1CC[C@H](c2cc(NC(=O)COc3cc(OC)cc(O)c3C=O)n[nH]2)C1)C(C)C` [Compound 169] are 22.9 nM, 773 nM and 2.27 nM.
In the same order, the values of `COc1cc(O)c(C=O)c(OCC(=O)Nc2cc([C@H]3CC[C@@H](OC(=O)NCc4ccccc4)C3)[nH]n2)c1` [Compound 170] are 70.6 nM, 6040 nM and 3.06 nM.
The corresponding values for `COc1cc(O)c(C=O)c(OCC(=O)Nc2cc([C@H]3CC[C@@H](OC(=O)N(OC)C(C)C)C3)[nH]n2)c1` [Compound 171] are 107 nM, over 10000 nM and 3.24 nM.
As to `COc1cc(O)c(C=O)c(OCC(=O)Nc2cc([C@H]3CC[C@@H](OC(=O)N(O)C(C)C)C3)[nH]n2)c1` [Compound 173], the IC50 in assay [1] turned out to be 34.2 nM; in assay [2], 5340 nM; in assay [3], 3.99 nM.
In the same order, the values of `COc1cc(O)c(C=O)c2c1C[C@@H](C(=O)Nc1cc([C@H]3CC[C@@H](OC(=O)NC(C)C)C3)[nH]n1)C2` [Compound 174, (1R,3S)-3-(3-((S)-4-formyl-5-hydroxy-7-methoxy-2,3-dihydro-1H-indene-2-carboxamido)-1H-pyrazol-5-yl)cyclopentyl isopropylcarbamate] are 10.7 nM, 668 nM and 3.26 nM.
In the same order, the values of `COc1cc(O)c(C=O)c(OCC(=O)Nc2cc([C@H]3CC[C@@H](OC(=O)NCCC(F)(F)F)C3)[nH]n2)c1` [Compound 175] are 16.9 nM, 8440 nM and 2.11 nM.
On to `COCC(C)(C)NC(=O)O[C@@H]1CC[C@H](c2cc(NC(=O)COc3cc(OC)cc(O)c3C=O)n[nH]2)C1` [Compound 176], for which the IC50 in assay [1] amounted to 57.4 nM; in assay [2] it was 3360 nM; in assay [3], 4.2 nM.
For the compound `COCC[C@H](C)NC(=O)O[C@@H]1CC[C@H](c2cc(NC(=O)COc3cc(OC)cc(O)c3C=O)n[nH]2)C1` [Compound 177], the IC50 in assay [1] is 29.3 nM; in assay [2], over 10000 nM; in assay [3], 3.17 nM.
